Test results from paper PMC4161152 (Journal of Medicinal Chemistry, 2014).

Columns and labels:
Type in all cases: cell-based
[1] = test system: human Raji lymphoma cells; test: Raji lymphoma cell MTT assay
MCF7_MCT4 cells = test: MCF7_MCT4 MTT assay; conditions: Homo sapiens, 96 h, read-out: growth inhibition EC50, MCF7_MCT4 cells
human MCT4 = target: T1, human MCT4 (Homo sapiens, UniProt O15427); test: 14C lactate uptake in MCF7_MCT4 cells; conditions: increased uptake versus parental MCF7 cells
T1 sequence (O15427 1-465): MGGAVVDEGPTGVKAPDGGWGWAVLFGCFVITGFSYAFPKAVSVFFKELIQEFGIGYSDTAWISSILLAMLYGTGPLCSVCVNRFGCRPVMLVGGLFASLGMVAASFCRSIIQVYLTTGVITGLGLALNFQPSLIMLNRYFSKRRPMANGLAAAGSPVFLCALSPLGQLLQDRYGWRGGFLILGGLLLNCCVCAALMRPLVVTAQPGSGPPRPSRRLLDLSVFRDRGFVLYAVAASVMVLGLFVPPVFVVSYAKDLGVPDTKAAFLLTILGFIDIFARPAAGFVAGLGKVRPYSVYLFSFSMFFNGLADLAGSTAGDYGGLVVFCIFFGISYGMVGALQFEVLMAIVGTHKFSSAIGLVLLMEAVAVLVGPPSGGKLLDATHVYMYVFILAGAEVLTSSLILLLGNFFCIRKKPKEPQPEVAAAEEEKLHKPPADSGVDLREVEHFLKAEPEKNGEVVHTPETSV

MCT1 = target: T2, MCT1 (Mus musculus, UniProt P53986); test: MCF7_MCT1 14C-lactate transport assay; conditions: IC50 (nM) lactate transport, labeled (14C) lactate transport, MCF7 breast cancer cells engineered to overexpress MCT1, 10 min on ice
T2 sequence (P53986 1-493): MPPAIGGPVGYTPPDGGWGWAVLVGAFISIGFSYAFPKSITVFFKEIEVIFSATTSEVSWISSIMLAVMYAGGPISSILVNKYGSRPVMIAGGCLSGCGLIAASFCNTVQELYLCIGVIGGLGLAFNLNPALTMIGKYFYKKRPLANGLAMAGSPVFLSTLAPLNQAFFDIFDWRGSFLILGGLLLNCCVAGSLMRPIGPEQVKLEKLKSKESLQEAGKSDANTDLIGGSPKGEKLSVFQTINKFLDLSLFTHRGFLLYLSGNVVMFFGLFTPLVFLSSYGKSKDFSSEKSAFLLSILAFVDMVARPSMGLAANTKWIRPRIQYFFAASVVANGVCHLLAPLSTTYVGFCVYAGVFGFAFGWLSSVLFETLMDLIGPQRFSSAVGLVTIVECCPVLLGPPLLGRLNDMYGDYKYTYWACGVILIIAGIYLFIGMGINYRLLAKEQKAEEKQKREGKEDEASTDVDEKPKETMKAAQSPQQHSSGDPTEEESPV

| SMILES | IC50 (MCT1) | activity in Raji lymphoma cell proliferation assay (in words) [1] | also measured |
| --- | --- | --- | --- |
| Cc1n[nH]c(C)c1Cc1nc2c(nc1CCCCCO)c(=O)n(C)c(=O)n2CC(C)C [Compound 31] | – | inactive | – |
| CC(C)Cc1nn(C)c(=O)c2c(SCCCO)n(Cc3cccc4ccccc34)cc12 [Compound 1, reference compound] | – | – | EC50 (MCF7_MCT4 cells): > 10000 nM; effect on 14C lactate uptake in MCF7_MCT4 cells (in words) (human MCT4): not inhibited |
| CC(C)Cn1c(=O)n(C)c(=O)c2nc(SCCCCO)c(Cc3cccc4ccccc34)nc21 [Compound 15c] | – | – | fold higher EC50 than clinical compound 2 [1]: 2–4 fold |
| CC(C)Cn1c(=O)n(C)c(=O)c2nc(/C=C\CCCO)c(Cc3cccc4ccccc34)nc21 [Compound 27] | 116 nM | – | fold higher EC50 than clinical compound 2 [1]: 2–4 fold |
| CC(C)Cn1c(=O)n(C)c(=O)c2c1nc(Cc1cccc3ccccc13)c(=O)n2CCCCO [Compound 14b] | 548 nM | – | – |
| CC(C)Cn1c(=O)n(C)c(=O)c2c1nc(Cc1cccc3ccccc13)c(=O)n2CCCCCCO [Compound 14d] | – | inactive | – |
| COCCCCCc1nc2c(=O)n(C)c(=O)n(CC(C)C)c2nc1Cc1cccc2ccccc12 [Compound 28] | – | largely inactive | – |
| CC(C)Cn1c(=O)n(C)c(=O)c2[nH]c(=O)c(Cc3cccc4ccccc34)nc21 [Compound 12] | – | inactive | – |

Continued, in another order:

| IC50 (MCT1) | SMILES | activity in Raji lymphoma cell proliferation assay (in words) [1] | also measured |
| --- | --- | --- | --- |
| 192 nM | CC(C)Cn1c(=O)n(C)c(=O)c2nc(CCCCCO)c(Cc3cccc4ccccc34)nc21 [Compound 23b] | – | fold higher EC50 than clinical compound 2 [1]: 2–4 fold |
| > 2000 nM | CC(C)Cn1c(=O)n(C)c(=O)c2nc(CCCCO)c(Cc3cccc4ccccc34)nc21 [Compound 23a] | – | – |
| 858 nM | CC(C)Cn1c(=O)n(C)c(=O)c2nc(SCCCO)c(Cc3cccc4ccccc34)nc21 [Compound 15b] | – | – |
